Laboratory results from patent US20110213025A1, “Catheter Lock Solutions Utilizing Tocopherol and Mid-Chain Fatty Acids” (ProviFlo, LLC, priority 2009, published 2011).

Experiment: saturation point of dodecanoic acid in the liquid lock components at room temperature
Format: physicochemical
Settings: without heating, soluble in octanoic acid, decanoic and tocopherol, weight/volume
Source text: In a fifth aspect of the present invention, a hydrophobic antimicrobial catheter lock solution includes alpha-tocopherol, in a concentration of 0% to 50% by volume/volume and mid-chain fatty acids. The fatty acids may include any combination of octanoic acid (0% to 25% volume/volume), decanoic acid (0% to 12.5% volume/volume), and/or dodecanoic acid (0% to 12.5% weight/volume). The combined formula after dissolving and mixing the chosen mid-chain fatty acid(s) is adjusted to a final volume with the alpha-tocopherol so that the solution has a viscosity greater than about 3 mPa·s. The lock has a viscosity in the range of about 3-5 mPa·s. Dodecanoic acid is a solid soluble in octanoic acid, decanoic and tocopherol. Concentrations of dodecanoic acid of less than about 25% dissolve readily without heating (i.e. 25% is approximately the saturation point of dodecanoic acid at room temperature). Optimal concentrations are most easily achieved by dissolution of dodecanoic acid in octanoic acid prior to adding the tocopherol. Of course, it is also possible to mix any or all of the liquid ingredients (i.e. octanoic acid and/or decanoic acid and/or tocopherol) together first and secondarily dissolve the dodecanoic acid. Alternatively, dodecanoic acid could be mixed with any of the liquids and the remaining liquid components added depending on the concentration of dodecanoic acid. […]

## CCCCCCCCCCCC(=O)O [dodecanoic acid]
  saturation point of dodecanoic acid: about 25%
